# Measurements reported in ChEMBL document CHEMBL3632621, “Conformationally restricted κ-opioid receptor agonists: Synthesis and pharmacological evaluation of diastereoisomeric and enantiomeric decahydroquinoxalines” (Bioorg Med Chem Lett, 2015).
# What was measured:
# [1] = target: Mu-type opioid receptor (Cavia porcellus, UniProt P97266); test: Displacement of [3H]-DAMGO from mu opioid receptor in guinea pig brain membrane after 120 mins by scintillation counting; type: cell membranes
# [2] = target: T1, Kappa-type opioid receptor (Homo sapiens, UniProt P41145); test: Binding affinity to kappa opioid receptor (unknown origin)
# [3] = target: Kappa-type opioid receptor (Cavia porcellus, UniProt P41144); test: Displacement of [3H]-U-69593 from kappa opioid receptor in guinea pig brain membrane after 120 mins by scintillation counting; type: cell membranes
# [4] = target: T1, Kappa-type opioid receptor; test: Intrinsic activity at kappa opioid receptor in human HEK293 cells at 100 nM after 30 mins by [35S]GTPgammaS binding assay relative to U-69593; type: functional, cell-based
# [5] = target: Delta-type opioid receptor (Rattus norvegicus, UniProt P33533); test: Displacement of [3H]-DPDPE from delta opioid receptor in rat brain membrane after 120 mins by scintillation counting; type: cell membranes
# Delta-type opioid receptor, sequence (P33533 whole entry): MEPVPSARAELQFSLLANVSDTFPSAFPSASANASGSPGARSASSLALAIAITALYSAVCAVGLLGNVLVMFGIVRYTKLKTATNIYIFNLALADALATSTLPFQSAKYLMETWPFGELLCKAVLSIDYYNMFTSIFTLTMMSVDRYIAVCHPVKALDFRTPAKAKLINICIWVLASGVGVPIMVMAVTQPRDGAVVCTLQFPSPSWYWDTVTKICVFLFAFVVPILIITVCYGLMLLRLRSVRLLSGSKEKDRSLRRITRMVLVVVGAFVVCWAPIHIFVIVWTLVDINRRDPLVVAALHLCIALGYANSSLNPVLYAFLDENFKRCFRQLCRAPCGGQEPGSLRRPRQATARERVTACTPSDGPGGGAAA
# Mu-type opioid receptor, sequence (P97266 whole entry): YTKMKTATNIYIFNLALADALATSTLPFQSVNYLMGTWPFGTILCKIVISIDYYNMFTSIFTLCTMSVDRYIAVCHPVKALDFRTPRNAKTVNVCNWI
# T1 sequence (P41145 whole entry): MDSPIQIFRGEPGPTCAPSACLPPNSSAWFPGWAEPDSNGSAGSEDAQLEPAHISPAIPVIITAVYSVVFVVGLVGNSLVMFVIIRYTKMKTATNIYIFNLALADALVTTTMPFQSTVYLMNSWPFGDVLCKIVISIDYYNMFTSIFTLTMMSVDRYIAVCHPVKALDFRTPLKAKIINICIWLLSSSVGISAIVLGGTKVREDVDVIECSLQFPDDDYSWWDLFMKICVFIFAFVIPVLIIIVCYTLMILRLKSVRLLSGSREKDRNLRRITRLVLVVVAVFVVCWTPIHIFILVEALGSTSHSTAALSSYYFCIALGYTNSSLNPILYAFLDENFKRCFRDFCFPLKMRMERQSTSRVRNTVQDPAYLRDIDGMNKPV
# Kappa-type opioid receptor (Cavia porcellus, UniProt P41144), sequence (P41144 whole entry): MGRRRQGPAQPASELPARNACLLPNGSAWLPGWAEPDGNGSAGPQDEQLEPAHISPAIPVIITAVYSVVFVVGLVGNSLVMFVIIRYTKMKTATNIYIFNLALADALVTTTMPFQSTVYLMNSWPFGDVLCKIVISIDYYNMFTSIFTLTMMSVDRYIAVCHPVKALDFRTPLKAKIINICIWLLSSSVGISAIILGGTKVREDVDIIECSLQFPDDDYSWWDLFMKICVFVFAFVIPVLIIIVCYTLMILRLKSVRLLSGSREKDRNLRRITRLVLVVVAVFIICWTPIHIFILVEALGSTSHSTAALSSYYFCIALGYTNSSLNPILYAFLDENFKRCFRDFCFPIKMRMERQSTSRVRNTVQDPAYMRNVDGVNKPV
SMILES,Ki [1],further results
COC(=O)N1CCN(C(=O)Cc2ccc(Cl)c(Cl)c2)[C@H]2[C@H](N3CCCC3)CCC[C@H]21,0.544 µM,–
COC(=O)N1CCN(C(=O)Cc2ccc(Cl)c(Cl)c2)[C@@H]2[C@@H](N3CCCC3)CCC[C@@H]21,0.043 µM,–
COC(=O)N1CCN(C(=O)Cc2ccc(Cl)c(Cl)c2)[C@H](CN2CCCC2)C1,–,Ki [2]: 0.36 µM; Ki [3]: 0.00036 µM
COC(=O)N1CCN(C(=O)Cc2ccc(Cl)c(Cl)c2)[C@H]2[C@H](N3CCCC3)CCC[C@H]21 (racemic),0.113 µM,–
COC(=O)N1CCN(C(=O)Cc2ccc(Cl)c(Cl)c2)[C@H]2[C@H](N3CCCC3)CCC[C@@H]21 (stereo in doubt),0.309 µM,–
COC(=O)N1CCN(C(=O)Cc2ccc(Cl)c(Cl)c2)[C@H]2[C@@H](N3CCCC3)CCC[C@@H]21 (stereo in doubt),0.343 µM,–
COC(=O)N1CCN(C(=O)Cc2ccc(Cl)c(Cl)c2)[C@@H]2[C@H](N3CCCC3)CCC[C@H]21 (stereo in doubt),0.118 µM,–
CN(C(=O)/C=C/c1ccoc1)[C@@H]1CC[C@@]2(O)[C@H]3Cc4ccc(O)c5c4[C@@]2(CCN3CC2CC2)[C@H]1O5 [NALFURAFINE],–,Activity [4]: 100%; Ki [5]: 0.00037 µM
